Active and inactive are the calls of the source. No cut-off for these calls is given here.
Legend:
BMDM [1] = assay: Induction of IL-6 production in C57BL/6 mouse BMDM cells at 1 nmol per well incubated for 24 hrs by ELISA; format: functional, cell-based
BMDM [2] = assay: Induction of IL-1beta production in C57BL/6 mouse BMDM cells at 1 nmol per well incubated for 24 hrs by ELISA; format: functional, cell-based
BMDM [3] = assay: Induction of MIP-2 production in C57BL/6 mouse BMDM cells at 1 nmol per well incubated for 24 hrs by ELISA; format: functional, cell-based
2B4 = assay: Induction of NFAT-GFP signal in mouse 2B4 reporter cells expressing mMincle + FcRgamma at 0.1 to 1 nmol incubated for 18 hrs by flow cytometry analysis; format: functional, cell-based; settings: dose 0.1-1 nmol
BMDM [4] = assay: Induction of IL-23 production in C57BL/6 mouse BMDM cells at 1 nmol per well incubated for 48 hrs in presence of 2 ug/ml murabutide by ELISA; format: functional, cell-based
BMDM [5] = assay: Induction of IL-23 production in C57BL/6 mouse BMDM cells at 1 nmol per well incubated for 48 hrs in presence of 2ug/ml (4R)-4-[[(2S)-2-[[(2R)-2-[(3R,4R,5S,6R)-3-acetamido-2,5-dihydroxy-6-(hydroxymethyl)tetrahydropyran-4-yl]oxypropanoyl]amino]propanoyl]amino]-5-amino-5-oxo-pentanoic acid by ELISA; format: functional, cell-based
HEK293 [6] = assay: Induction of IL-8 production in HEK293 cells expressing mouse NOD2 at 5 to 50 uM incubated for 20 hrs by ELISA; format: functional, cell-based; settings: Homo sapiens, dose 5-50 µM
HEK293 [7] = assay: Induction of IL-8 production in HEK293 cells expressing mouse NOD2 at 5 to 50 uM incubated for 20 hrs in presence of 10 to 100 uM (4R)-4-[[(2S)-2-[[(2R)-2-[(3R,4R,5S,6R)-3-acetamido-2,5-dihydroxy-6-(hydroxymethyl)tetrahydropyran-4-yl]oxypropanoyl]amino]propanoyl]amino]-5-amino-5-oxo-pentanoic acid by ELISA; format: functional, cell-based; settings: Homo sapiens, dose 5-50 µM
BMDM [8] = assay: Induction of IL-1beta production in C57BL/6 mouse BMDM cells at 1 nmol per well incubated for 48 hrs in presence of 2 ug/ml (4R)-4-[[(2S)-2-[[(2R)-2-[(3R,4R,5S,6R)-3-acetamido-2,5-dihydroxy-6-(hydroxymethyl)tetrahydropyran-4-yl]oxypropanoyl]amino]propanoyl]amino]-5-amino-5-oxo-pentanoic acid by ELISA; format: functional, cell-based
BMDM [9] = assay: Induction of IL-23 production in C57BL/6 mouse BMDM cells at 1 nmol per well incubated for 48 hrs in presence of 2.5 ug/ml (2R,6S)-2-amino-6-[[(4R)-4-amino-4-carboxy-butanoyl]amino]heptanedioic acid by ELISA; format: functional, cell-based
Splenocyte [10] = assay: Improvement in memory response in ovalbumin immunized C57BL/6 mouse splenocytes assessed as increase in IFNgamma level incubated for 72 hrs in presence of (4R)-4-[[(2S)-2-[[(2R)-2-[(3R,4R,5S,6R)-3-acetamido-2,5-dihydroxy-6-(hydroxymethyl)tetrahydropyran-4-yl]oxypropanoyl]amino]propanoyl]amino]-5-amino-5-oxo-pentanoic acid by ELISA; format: functional, cell-based
BMDM [11] = assay: Induction of IL-1beta production in C57BL/6 mouse BMDM cells at 2 ug/ml incubated for 48 hrs in presence of 1 nmol [(2R,3S,4S,5R,6R)-3,4,5-trihydroxy-6-[(3R,4S,5S,6R)-3,4,5-trihydroxy-6-[(4-octadecoxybenzoyl)oxymethyl]tetrahydropyran-2-yl]oxy-tetrahydropyran-2-yl]methyl 4-octadecoxybenzoate by ELISA; format: functional, cell-based; settings: dose 2.0 µg/ml
Splenocyte [12] = assay: Improvement in memory response in ovalbumin immunized C57BL/6 mouse splenocytes assessed as increase in IFNgamma level incubated for 72 hrs in presence of 6,6'-Di-0-(2,4-bis(octadecyloxy)benzoyl)-alpha,alpha'-D-trehalose by ELISA; format: functional, cell-based
HEK293 [13] = assay: Induction of IL-8 production in HEK293 cells expressing mouse NOD2 at 10 to 100 uM incubated for 20 hrs in presence of 5 to 50 uM [(2R,3S,4S,5R,6R)-3,4,5-trihydroxy-6-[(3R,4S,5S,6R)-3,4,5-trihydroxy-6-[(4-octadecoxybenzoyl)oxymethyl]tetrahydropyran-2-yl]oxy-tetrahydropyran-2-yl]methyl 4-octadecoxybenzoate by ELISA; format: functional, cell-based; settings: Homo sapiens, dose 10-100 µM
HEK293 [14] = assay: Induction of IL-8 production in HEK293 cells expressing mouse NOD2 at 10 to 100 uM incubated for 20 hrs in presence of 5 to 50 uM 6,6'-Di-0-(2,4-bis(octadecyloxy)benzoyl)-alpha,alpha'-D-trehalose by ELISA; format: functional, cell-based; settings: Homo sapiens, dose 10-100 µM
Splenocyte [15] = assay: Improvement in memory response in ovalbumin immunized C57BL/6 mouse splenocytes assessed as increase in IFNgamma level incubated for 72 hrs in presence of [(2R,3S,4S,5R,6R)-3,4,5-trihydroxy-6-[(3R,4S,5S,6R)-3,4,5-trihydroxy-6-[(4-octadecoxybenzoyl)oxymethyl]tetrahydropyran-2-yl]oxy-tetrahydropyran-2-yl]methyl 4-octadecoxybenzoate by ELISA; format: functional, cell-based
BMDM [16] = assay: Induction of IL-23 production in C57BL/6 mouse BMDM cells at 2 ug/ml incubated for 48 hrs in presence of 1 nmol [(2R,3S,4S,5R,6R)-3,4,5-trihydroxy-6-[(3R,4S,5S,6R)-3,4,5-trihydroxy-6-[(4-octadecoxybenzoyl)oxymethyl]tetrahydropyran-2-yl]oxy-tetrahydropyran-2-yl]methyl 4-octadecoxybenzoate by ELISA; format: functional, cell-based; settings: dose 2.0 µg/ml
[17] = Toxicity in ovalbumin immunized C57BL/6 mouse assessed as reactogenicity boosted with OVA at 1 week and measured after week 3, 4, 5 and 6 in presence of 6,6'-Di-0-(2,4-bis(octadecyloxy)benzoyl)-alpha,alpha'-D-trehalose; settings: in vivo, 1008 h, time 6 weeks
Mus musculus = species on record: Mus musculus; assay: Adjuvanticity in ovalbumin immunized C57BL/6 mouse assessed as increase in anti-OVA IgG titers boosted with OVA at 1 week and measured after week 3, 4, 5 and 6 in presence of 6,6'-Di-0-(2,4-bis(octadecyloxy)benzoyl)-alpha,alpha'-D-trehalose by ELISA; format: functional, organism-based; settings: time 6.0 weeks

Q: For CCCCCCCCCCCCCCCCCCOc1ccc(C(=O)OC[C@H]2O[C@H](O[C@H]3O[C@H](COC(=O)c4ccc(OCCCCCCCCCCCCCCCCCC)cc4OCc4cn(CCCN(OC)[C@@H]5O[C@H](CO)[C@@H](O)[C@H](O)[C@H]5NC(C)=O)nn4)[C@@H](O)[C@H](O)[C@H]3O)[C@H](O)[C@@H](O)[C@@H]2O)c(OCc2cn(CCCN(OC)[C@@H]3O[C@H](CO)[C@@H](O)[C@H](O)[C@H]3NC(C)=O)nn2)c1, which Activity (BMDM [1]) is on record?
A: inactive

Q: What about the Activity (BMDM [2]) of the same compound?
A: inactive

Q: And the Activity (BMDM [3])?
A: inactive

Q: With CONCCCn1cc(CCCCCCCCCCCCCCCCCOc2ccc(C(=O)OC[C@H]3O[C@H](O[C@H]4O[C@H](COC(=O)c5ccc(OCCCCCCCCCCCCCCCCCc6cn(CCCNOC)nn6)cc5)[C@@H](O)[C@H](O)[C@H]4O)[C@H](O)[C@@H](O)[C@@H]3O)cc2)nn1 as the compound, how does the Activity (2B4) read?
A: Active

Q: With CCCCCCCCCCCCCCCCCCOc1ccc(C(=O)OC[C@H]2O[C@H](O[C@H]3O[C@H](COC(=O)c4ccc(OCCCCCCCCCCCCCCCCCC)cc4)[C@@H](O)[C@H](O)[C@H]3O)[C@H](O)[C@@H](O)[C@@H]2O)cc1 as the compound, how does the Activity (BMDM [4]) read?
A: inactive

Q: And the Activity (BMDM [5])?
A: Active

Q: What about the Activity (HEK293 [6]) of the same compound?
A: inactive

Q: And the Activity (HEK293 [7])?
A: Active

Q: And the Activity (BMDM [8])?
A: Active

Q: And the Activity (BMDM [9])?
A: inactive

Q: What about the Activity (Splenocyte [10]) of the same compound?
A: Active

Q: And the Activity (2B4)?
A: Active

Q: For CC(=O)N[C@@H]1[C@@H](O[C@H](C)C(=O)N[C@@H](C)C(=O)N[C@H](CCC(=O)O)C(N)=O)[C@H](O)[C@@H](CO)O[C@H]1O [MURAMYL DIPEPTIDE], which Activity (BMDM [11]) is on record?
A: Active

Q: What about the Activity (Splenocyte [12]) of the same compound?
A: inactive

Q: What about the Activity (HEK293 [13]) of the same compound?
A: Active

Q: What about the Activity (HEK293 [14]) of the same compound?
A: Active

Q: What about the Activity (Splenocyte [15]) of the same compound?
A: Active

Q: What about the Activity (BMDM [16]) of the same compound?
A: Active

Q: And the Activity [17]?
A: Toxic

Q: What about the Activity (Mus musculus) of the same compound?
A: Active

Q: Which Activity (BMDM [16]) does the source give for CCCCOC(=O)[C@@H](CCC(N)=O)NC(=O)[C@H](C)NC(=O)[C@@H](C)O[C@H]1[C@H](O)[C@@H](CO)OC(O)[C@@H]1NC(C)=O (stereo partly specified) here?
A: inactive

Reference: ChEMBL document CHEMBL5543114, “Chimeric NOD2 Mincle Agonists as Vaccine Adjuvants” (J Med Chem, 2024)
